Assay results taken from BigSolDB 2.1.

c1ccc2cc3ccccc3cc2c1
Details	solubility (mole fraction)
in DMAc, 293.15 K	0.0083
in DMAc, 298.85 K	0.0113
in DMAc, 303.85 K	0.0142
in DMAc, 308.75 K	0.0159
in DMAc, 313.95 K	0.0185
in DMAc, 319.75 K	0.0215
in DMAc, 324.25 K	0.025
in DMAc, 328.05 K	0.0269
in DMAc, 332.2 K	0.0301
in DMAc, 333.15 K	0.029
in DMAc, 339.35 K	0.0338
in DMAc, 344.95 K	0.0393
in DMAc, 348.45 K	0.0432
in DMAc, 350.3 K	0.0502
in DMAc, 354.55 K	0.0485
in DMAc, 359.25 K	0.0564
in DMF, 293.35 K	0.0042
in DMF, 298.45 K	0.0054
in DMF, 303 K	0.0057
in DMF, 303.15 K	0.0068
in DMF, 308 K	0.0072
in DMF, 308.45 K	0.0086
in DMF, 312.8 K	0.0101
in DMF, 313.21 K	0.0114
in DMF, 313.65 K	0.0104
in DMF, 317.4 K	0.011
in DMF, 318.15 K	0.0127
in DMF, 318.85 K	0.0131
in DMF, 322.8 K	0.0139
in DMF, 323.25 K	0.015
in DMF, 326.28 K	0.0166
in DMF, 329.15 K	0.018
in DMF, 333.15 K	0.0191
in DMF, 334.55 K	0.0211
in DMF, 334.9 K	0.0221
in DMF, 339.75 K	0.0252
in DMF, 345.05 K	0.0292
in DMF, 348.29 K	0.032
in DMF, 349.85 K	0.0336
in DMF, 353.55 K	0.0384
in DMF, 358.85 K	0.0448
in DMF, 359.48 K	0.0452
in NMP, 293.45 K	0.0152
in NMP, 299.15 K	0.0186
in NMP, 303.45 K	0.0217
in NMP, 308.55 K	0.0255
in NMP, 314.05 K	0.0325
in NMP, 317.84 K	0.043
in NMP, 318.15 K	0.0409
in NMP, 324.75 K	0.0455
in NMP, 331.21 K	0.0546
in NMP, 331.25 K	0.0539
in NMP, 335.25 K	0.0591
in NMP, 339.75 K	0.0653
in NMP, 344.55 K	0.0738
in NMP, 349.85 K	0.0804
in NMP, 350.45 K	0.0825
in NMP, 353.55 K	0.0884
